Structures can show the parent of a compound that is named as a salt.

Data set [1] is described as follows: Stability test in human liver microsome. The conditions noted are these: human liver microsome 0.5 mg protein/mL, compound 1 μM, β-NADPH. The data set is classed as in vitro ADME. On the procedure:
Biological Example 3: Stability Test of the Compounds of the Present Invention in Human Liver Microsome
The composition of the incubation system:
(1) The liver microsome (20 mg protein/mL) was removed from the −80° C. refrigerator, pre-incubated in a 37° C. water bath constant temperature oscillator for 3 minutes, and thawed for use.
(2) A mixed solution of the incubation system (excluding compound and β-NADPH) according to the above “composition of the incubation system” for the test was prepared, and pre-incubated in a 37° C. water bath constant temperature oscillator for 2 minutes.
(3) Control group (excluding β-NADPH): 30 μL of water and 30 μL of compound working solution (concentration: 10 μM) were added to 240 μL of the mixed solution of the incubation system of step (2), and vortexed for 30 seconds to mix well. The total reaction volume was 300 μL. A duplicate sample was prepared. The sample was incubated in a 37° water bath constant temperature oscillator. The timing began and the sampling time points were set at 0 minute and 60 minutes.
(4) Sample group: 70 μL β-NADPH solution (10 mM) and 70 μL compound working solution (concentration: 10 μM) were added to 560 μL of the mixed solution in step (2). The total reaction volume was 700 μL. The resulting mixture was vortexed for 30 seconds to mix well. A duplicate sample was prepared. The sample was incubated in a 37° C. water bath constant temperature oscillator. The timing began and the sampling time points were set at 0 minute, 5 minutes, 10 minutes, 20 minutes, 30 minutes, and 60 minutes after timing.
(5) After vortexing for 3 minutes, the sample was centrifuged at 12000 rpm for 5 minutes.
(6) 150 μL of water was added to 50 μL of the supernatant. The resulting mixture was evenly mixed in vortex, and the sample LC/MS/MS analysis was performed.

In another data set the target is rhVAP-1 (Homo sapiens (Human), UniProt Q16853). The data set can be described thus: Inhibition activity of the compounds on the rhVAP-1 enzyme (Amplex Red/HRP fluorescence, benzylamine substrate). The format is biochemical. The note with it: 30 minutes pre-incubation at 37° C. On the procedure:
1. Inhibition Activity of the Compounds on the rhVAP-1 Enzyme
Multifunctional microplate reader (MD, FlexStation 3), black bottom-impermeable 96-well plate (Corning), rhVAP-1 (PeproTech)
An appropriate amount of the test compound was dissolved in DMSO to 10 mM and stored. Before the experiment, an appropriate amount of 10 mM test compound mother liquor was diluted to 10 μM solution with DMSO. Then 3-fold gradient dilution with DMSO was performed, and 10 concentration gradients were formed.
An appropriate amount of protein diluent was added to the rhVAP-1 powder to obtain 1 mg/mL of the mother liquor for storage. Before the experiment, the dilution with PBS provided a 4×concentration of the enzyme solution.
An appropriate amount of benzylamine was added to PBS and dissolved to obtain 200 mM of the benzylamine solution. 2 mM Amplex Red mother liquor and 500 U/mL HRP mother liquor were added. The dilution with PBS provided 2×concentration substrate mixed solution.
First, 10 μL of compound solutions of different concentrations, 25 μL of 4×rhVAP-1 enzyme solution and 15 μL of PBS were added to a 96-well plate, evenly mixed by oscillation, and incubated at 37° C. for 30 minutes. Then 50 μL of 2×substrate mixed solution was added to each well, and immediately the detection was performed with the microplate reader in a condition of an exciting light at 565 nm, an emitting light at 590 nm, the fluorescence intensity for detecting each well of 5 minutes/run, and a total detection time of 25 minutes. The inhibition rate was calculated according to the following formula: V(RFU/min)=(Ft(RFU)−F0(RFU))/(Time(min)) Inhibition rate (%)=100%−Vcmpd(RFU/min)/V max(RFU/min)×100%
(§1) V: the fluorescence change rate; Ft: fluorescence reading at the time point t; F0: fluorescence reading at the time point 0; Time: time period t; Vcmpd: the fluorescence change rate of the test compound; Vmax: the Max well fluorescence change rate.
(§2) The log values of the concentrations were taken as the X-axis and the percent inhibition rates were taken as the Y-axis, and the dose-effect curve was fitted using the log(inhibitor) vs. response-Variable slope of the analytical software GraphPad Prism 5 to obtain the IC50 value of each compound for enzyme activity.

A further data set concerns the target MAO-B (Homo sapiens (Human), UniProt P27338). The data set can be described thus: Selectivity of the compounds for MAO-B enzyme (MAO-Glo). The data set is classed as biochemical. The conditions noted are these: 60 minutes pre-incubation at 37° C. As for the experimental part:
(§3) 2. Selectivity of the Compounds for MAO-A/B Enzymes
(§4) Microplate reader (Perkin Elmer, Envision), 384 well plates (Perkin Elmer), centrifuge (Eppendorf), MAO-Glo™ (Promega), MAO-A (Active Motif) and MAO-B (Active Motif).
(§5) An appropriate amount of the test compound was dissolved in DMSO to 10 mM and stored. Before the experiment, an appropriate amount of 10 mM test compound mother liquor was diluted to 100 μM solution with DMSO. Then 4-fold gradient dilution with DMSO was performed, and 6 concentration gradients were formed.
(§6) The MAO-A/B mother liquor was diluted to 2×concentration enzyme solution with the assay buffer solution for the MAO-A/B.
(§7) The mother liquor of the MAO-A/B substrate mixed solution was diluted to 2×concentration substrate mixed solution with the assay buffer solution for the MAO-A/B.
(§8) 200 nL of compound solutions of different concentrations or solvent
(§9) and 10 μL of 2×MAO-A/B enzyme solution were added to a 384-well plate, evenly mixed by oscillation, and incubated at 37° C. for 60 minutes. Then 10 μL of 2×substrate mixed solution was added to each well, and immediately the detection was performed with the microplate reader in a condition of an exciting light at 535 nm, an emitting light at 587 nm, the fluorescence intensity for detecting each well of 5 minutes/run, and a total detection time of 25 minutes.
(§10) The inhibition rate was calculated according to the following formula: V(RFU/min)=(Ft(RFU)−F0(RFU))/(Time(min)) Inhibition rate (%)=100%−Vcmpd(RFU/min)/V max(RFU/min)×100%
as §1, §2

For a further data set, the target named is MAO-A (Homo sapiens (Human), UniProt P21397). In words: Selectivity of the compounds for MAO-A enzyme (MAO-Glo). The note with it: 60 minutes pre-incubation at 37° C. The format is biochemical. On the procedure: as §3, §4, §5, §6, §7, §8, §9, §10, §1, §2
Chain of MAO-A (P21397 whole entry): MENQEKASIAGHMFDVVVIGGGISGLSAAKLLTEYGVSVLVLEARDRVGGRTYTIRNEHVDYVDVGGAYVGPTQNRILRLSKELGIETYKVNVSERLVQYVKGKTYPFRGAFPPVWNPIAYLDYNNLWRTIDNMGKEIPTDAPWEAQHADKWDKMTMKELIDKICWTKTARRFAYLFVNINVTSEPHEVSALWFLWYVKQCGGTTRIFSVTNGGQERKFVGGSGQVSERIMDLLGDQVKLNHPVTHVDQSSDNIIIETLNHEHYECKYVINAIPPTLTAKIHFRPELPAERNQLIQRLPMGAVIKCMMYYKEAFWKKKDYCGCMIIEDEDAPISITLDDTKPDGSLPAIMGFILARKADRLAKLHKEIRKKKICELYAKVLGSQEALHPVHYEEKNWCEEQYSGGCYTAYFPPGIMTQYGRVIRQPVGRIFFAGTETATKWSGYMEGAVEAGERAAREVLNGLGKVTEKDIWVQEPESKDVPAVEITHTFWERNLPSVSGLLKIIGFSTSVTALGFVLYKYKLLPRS

Chain of rhVAP-1 (Q16853 whole entry): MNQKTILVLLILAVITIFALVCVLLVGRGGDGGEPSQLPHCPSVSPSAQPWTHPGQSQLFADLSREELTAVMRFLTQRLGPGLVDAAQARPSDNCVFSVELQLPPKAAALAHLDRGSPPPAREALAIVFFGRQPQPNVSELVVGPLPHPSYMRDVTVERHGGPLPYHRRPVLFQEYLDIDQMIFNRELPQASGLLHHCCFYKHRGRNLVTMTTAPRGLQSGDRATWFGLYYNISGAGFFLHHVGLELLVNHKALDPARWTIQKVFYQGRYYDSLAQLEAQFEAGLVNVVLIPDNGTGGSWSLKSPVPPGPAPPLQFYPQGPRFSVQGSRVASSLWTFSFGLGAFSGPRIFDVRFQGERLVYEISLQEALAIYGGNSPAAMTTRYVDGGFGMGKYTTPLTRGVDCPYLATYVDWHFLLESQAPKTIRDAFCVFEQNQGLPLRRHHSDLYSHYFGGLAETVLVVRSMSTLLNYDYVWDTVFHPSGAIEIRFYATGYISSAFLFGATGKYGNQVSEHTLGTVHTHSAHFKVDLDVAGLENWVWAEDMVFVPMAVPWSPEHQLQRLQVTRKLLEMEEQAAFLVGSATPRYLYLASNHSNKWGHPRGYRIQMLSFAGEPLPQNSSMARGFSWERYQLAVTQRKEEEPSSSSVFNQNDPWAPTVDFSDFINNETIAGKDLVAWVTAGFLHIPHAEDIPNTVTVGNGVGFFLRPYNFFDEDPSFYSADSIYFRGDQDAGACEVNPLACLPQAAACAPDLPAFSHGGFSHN
Chain of MAO-B (P27338 whole entry): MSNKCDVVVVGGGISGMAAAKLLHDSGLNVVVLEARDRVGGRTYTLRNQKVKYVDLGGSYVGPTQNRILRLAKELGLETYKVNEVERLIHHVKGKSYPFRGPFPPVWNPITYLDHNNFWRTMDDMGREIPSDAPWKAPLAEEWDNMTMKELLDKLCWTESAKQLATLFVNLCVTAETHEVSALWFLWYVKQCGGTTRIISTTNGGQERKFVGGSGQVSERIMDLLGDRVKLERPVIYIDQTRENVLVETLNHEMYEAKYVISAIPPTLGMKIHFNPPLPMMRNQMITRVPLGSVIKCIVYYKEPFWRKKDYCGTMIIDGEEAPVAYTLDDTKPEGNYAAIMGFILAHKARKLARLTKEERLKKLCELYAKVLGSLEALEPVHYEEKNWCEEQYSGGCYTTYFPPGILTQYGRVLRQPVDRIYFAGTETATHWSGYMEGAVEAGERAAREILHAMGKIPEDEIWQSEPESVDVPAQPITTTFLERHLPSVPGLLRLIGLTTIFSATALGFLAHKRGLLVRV

For the compound `NC/C(=C\F)COc1cc2c(cn1)C(=O)N(C1CC1)CC2` [Compound 22, (E)-6-((2-(aminomethyl)-3-fluoroallyl)oxy)-2-cyclopropyl-3,4-dihydro-2,7-naphthyridin-1(2H)-one], the ClH in data set [1] stood at 2.94 mL/min/kg.

As to `NC/C(=C/F)COc1ccc2c(n1)CCN(C1CC1)C2=O` [Compound 23, (Z)-2-((2-(aminomethyl)-3-fluoroallyl)oxy)-6-cyclopropyl-7,8-dihydro-1,6-naphthyridin-5(6H)-one], the ClH in data set [1] is reported as 4.63 mL/min/kg.

Take `NC/C(=C\F)COc1cnc2c(c1)CCNC2=O` [Hydrochloride of Compound 8, (E)-3-((2-(aminomethyl)-3-fluoroallyl)oxy)-6,7-dihydro-1,7-naphthyridin-8(5H)-one]: the results for the IC50 at rhVAP-1 and at MAO-B were 30 nM and above 100 µM, respectively.

As to `Cl.NC/C(=C\F)COc1ccc2c(c1)CN(C1CC1)C2=O` [Hydrochloride of Compound 16, (E)-5-((2-(aminomethyl)-3-fluoroallyl)oxy)-2-cyclopropyl isoindolin-1-one], the IC50 (in general, the concentration at which inhibition is half-maximal) on rhVAP-1 amounted to 24 nM; against MAO-B, 2.8 µM. For the same compound, the ClH in data set [1] is 0.18 mL/min/kg.

Compound `CCN(CC)C(=O)c1ccc(OC/C(=C/F)CN)cn1.Cl` [Hydrochloride of Compound 19, (E)-5-((2-(aminomethyl)-3-fluoroallyl)oxy)-N,N-diethylpicolinamide] gave an IC50 on rhVAP-1 of 21 nM. The ClH result in data set [1] is reported as “→0 mL/min/kg”.

Turning to `Cl.NC/C(=C\F)COc1cc2c(cn1)C(=O)N(C1CC1)C2` [Hydrochloride of Compound 21, (E)-6-((2-(aminomethyl)-3-fluoroallyl)oxy)-2-cyclopropyl-1,2-dihydro-3H-pyrrolo-[3,4-c]pyridin-3-one], the IC50 against rhVAP-1 was 21 nM; on MAO-B it was 14 µM; on MAO-A, above 100 µM. The compound also registered a ClH in data set [1] of 4.95 mL/min/kg.

For `NC/C(=C\F)COc1cnc2c(c1)CN(C1CC1)C2=O` [Hydrochloride of Compound 27, (E)-3-((2-(aminomethyl)-3-fluoroallyl)oxy)-6-cyclopropyl-5,6-dihydro-7H-pyrrolo[3,4-b]pyridin-7-one], the IC50 at rhVAP-1 stood at 16 nM; at MAO-B it was 38 µM.

In the case of `Cl.NC/C(=C/F)COc1cnc2c(c1)CN(C1CC1)C2=O` [Hydrochloride of Compound 28, (Z)-3-((2-(aminomethyl)-3-fluoroallyl)oxy)-6-cyclopropyl-5,6-dihydro-7H-pyrrolo[3,4-b]pyridin-7-one], the IC50 on rhVAP-1 worked out at 14 nM; against MAO-B, 20 µM. Besides, the ClH result in data set [1] is listed as “→0 mL/min/kg”.

`Cl.NC/C(=C/F)COc1ccc2c(c1)CN(C1CC1)C2=O` [Hydrochloride of Compound 29, (Z)-5-((2-(aminomethyl)-3-fluoroallyl)oxy)-2-cyclopropylisoindolin-1-one]: the IC50 against rhVAP-1 was found to be 25 nM; on MAO-B, 4.1 µM. In data set [1], this compound had a ClH of 4.18 mL/min/kg.

Regarding `NC/C(=C\F)COc1ccc2c(c1)C(=O)N(C1CC1)C2=O` [Hydrochloride of Compound 30, (E)-5-((2-(aminomethyl)-3-fluoroallyl)oxy)-2-cyclopropyl isoindolin-1,3-dione], the IC50 turned out to be 32 nM on rhVAP-1 and 5.8 µM against MAO-B.

As to `NC/C(=C/F)COc1ccc2c(c1)C(=O)N(C1CC1)C2=O` [Hydrochloride of Compound 31, (Z)-5-((2-(aminomethyl)-3-fluoroallyl)oxy)-2-cyclopropylisoindolin-1,3-dione], the IC50 against rhVAP-1 was 11 nM.

Take `NC/C(=C/F)COc1ccc2c(c1)CCN(C1CC1)C2=O` [Hydrochloride of Compound 34, (Z)-6-((2-(aminomethyl)-3-fluoroallyl)oxy)-2-cyclopropyl-3,4-dihydroisoquinolin-1(2H)-one]: the IC50 at rhVAP-1 was 6 nM; at MAO-B, 8.4 µM.

With `NC/C(=C\F)COc1ccc2c(n1)CN(C1CC1)C2=O` [Trifluoroacetate of Compound 24, (E)-2-((2-(aminomethyl)-3-fluoroallyl)oxy)-6-cyclopropyl-6,7-dihydro-5H-pyrrolo[3,4-b]pyridin-5-one], the IC50 against rhVAP-1 turned out to be 24 nM; on MAO-B, 37 µM. Also, the ClH entry in data set [1] was “→0 mL/min/kg”.

As for `NC/C(=C/F)COc1ccc2c(n1)CN(C1CC1)C2=O` [Trifluoroacetate of Compound 25, (Z)-2-((2-(aminomethyl)-3-fluoroallyl)oxy)-6-cyclopropyl-6,7-dihydro-5H-pyrrolo[3,4-b]pyridin-5-one], the results for the IC50 at rhVAP-1 and on MAO-B were 25 nM and 13 µM, respectively.

With `NC/C(=C\F)COc1ccc2c(n1)CCN(C1CC1)C2=O` [Trifluoroacetate of Compound 26, (E)-2-((2-(aminomethyl)-3-fluoroallyl)oxy)-6-cyclopropyl-7,8-dihydro-1,6-naphthyridin-5(6H)-one], the IC50 stood at 51 nM on rhVAP-1 and 8.8 µM at MAO-B.

On to `NC/C(=C/F)COc1cc2c(cn1)C(=O)N(C1CC1)CC2` [Trifluoroacetate of Compound 32, (Z)-6-((2-(aminomethyl)-3-fluoroallyl)oxy)-2-cyclopropyl-3,4-dihydro-2,7-naphthyridine-1(2H)-one], for which the IC50 at rhVAP-1 is 11 nM; at MAO-B it was 6.6 µM.

In the case of `NC/C(=C/F)COc1cc2c(cn1)C(=O)N(C1CC1)C2` [Trifluoroacetate of Compound 33, (Z)-6-((2-(aminomethyl)-3-fluoroallyl)oxy)-2-cyclopropyl-1,2-dihydro-3H-pyrrolo-[3,4-c]pyridin-3-one], the results for the IC50 against rhVAP-1 and against MAO-B were 14 nM and 8.6 µM, respectively.

Source of the values: US11649233B2, “Halo-allylamine SSAO/VAP-1 inhibitor and use thereof” (Nanjing Transthera Biosciences Co., Ltd., priority 2017, dated 2023).
